# Data as given in ChEMBL document CHEMBL5550106, “Recent advances in the exploration of oxazolidinone scaffolds from compound development to antibacterial agents and other bioactivities” (Eur J Med Chem, 2024).
# Experiments:
# [1] = test system: Mycobacterium tuberculosis; assay: Antimycobacterial activity against Mycobacterium tuberculosis H37Rv assessed as bacterial growth inhibition incubated for 7 days by fluorescence based analysis; format: functional; settings: 168 h, time 7 day
# Coagulation factor X = Coagulation factor X (Homo sapiens, UniProt P00742); assay: Inhibition of human factor Xa
# [2] = test system: Mycobacterium tuberculosis; assay: Antibacterial activity against Mycobacterium tuberculosis H37Rv assessed as inhibition of bacterial growth; format: functional
# Staphylococcus aureus [3] = assay: Antibacterial activity against Staphylococcus aureus HG001 assessed as reduction in bacterial cell growth incubated for 16 to 18 hrs by two-fold serial dilution method; format: functional; settings: time 16-18 hrs
# Staphylococcus aureus [4] = assay: Antimicrobial activity against […] Staphylococcus aureus ATCC 25923 assessed as reduction in cell growth by microdilution method; format: functional
# [5] = test system: Mycobacterium tuberculosis; assay: Antitubercular activity against XDR Mycobacterium tuberculosis X24 assessed as bacterial growth inhibition measured for 9 days; format: functional; settings: X24, 216 h, time 9 day
# Enterococcus faecalis [6] = assay: Antibacterial activity against vancomycin-resistant Enterococcus faecalis NR 31912 assessed as inhibition of bacterial growth; format: functional
# Staphylococcus aureus [7] = assay: Antibacterial activity against Methicillin-sensitive Staphylococcus aureus ATCC 9144 assessed as reduction in bacterial growth; format: functional
# Pseudomonas aeruginosa = assay: Antibacterial activity against Pseudomonas aeruginosa PAO1 assessed as bacterial growth inhibition incubated for 24 hrs by microtiter plate reader analysis; format: functional
# Staphylococcus aureus [8] = assay: Antibacterial activity against Linezolid-resistant Staphylococcus aureus assessed as reduction in bacterial growth; format: functional
# [9] = test system: Staphylococcus epidermidis; assay: Antibacterial activity against Staphylococcus epidermidis assessed as reduction in microbial growth after 24 hrs by CLSI based microdilution method; format: functional
# [10] = test system: Staphylococcus epidermidis; assay: Antibacterial activity against linezolid-resistant Staphylococcus epidermidis assessed as reduction in bacterial growth; format: functional
# [11] = test system: Staphylococcus epidermidis; assay: Antibacterial activity against Methicillin-resistant Staphylococcus epidermidis assessed as bacterial growth inhibition; format: functional
# Escherichia coli [12] = assay: Antibacterial activity against Escherichia coli MG1655 in presence of polymyxin B nonapeptide; format: functional
# Staphylococcus aureus [13] = assay: Antibacterial activity against Staphylococcus aureus assessed as reduction in bacterial growth incubated for 24 hrs by broth microdilution method; format: functional
# Escherichia coli [14] = assay: Antimicrobial activity against wild type Escherichia coli MG1655 assessed as inhibition of microbial growth; format: functional
# Escherichia coli [15] = assay: Antibacterial activity against efflux pump-efficient Escherichia coli MG1655 assessed as bacterial growth inhibition; format: functional
# [16] = Intrinsic clearance in mouse liver microsomes; format: ADME, Microsome; settings: read-out: CLH
# Staphylococcus aureus [17] = assay: Antibacterial activity against Staphylococcus aureus assessed as reduction in microbial growth by CLSI based broth microdilution method; format: functional
# Staphylococcus aureus [18] = assay: Antibacterial activity against methicillin-resistant Staphylococcus aureus assessed as reduction in microbial growth by CLSI based broth microdilution method; format: functional
# [19] = test system: Staphylococcus epidermidis; assay: Antibacterial activity against Methicillin-resistant Staphylococcus epidermidis assessed as inhibition of bacterial growth; format: functional
# Staphylococcus aureus [20] = assay: Antibacterial activity against Methicillin-resistant Staphylococcus aureus assessed as inhibition of bacterial growth; format: functional
# Enterococcus faecalis [21] = assay: Antibacterial activity against vancomycin-resistant Enterococcus faecalis incubated for 18 hrs by broth microdilution method; format: functional
# Staphylococcus aureus [22] = assay: Antibacterial activity against Methicillin-resistant Staphylococcus aureus assessed as fold reduction in bacterial growth incubated for 14 to 16 hrs by microbroth dilution method; format: functional; settings: time 14-16 hrs
# Staphylococcus aureus [23] = assay: Antimicrobial activity against Methicillin-sensitive Staphylococcus aureus ATCC 29213 assessed as reduction in bacterial growth; format: functional
# Staphylococcus aureus [24] = assay: Antimicrobial activity against […] Staphylococcus aureus ATCC 25923 assessed as reduction in microbial growth; format: functional
# Chain of Coagulation factor X (P00742 41-179 limits assumed): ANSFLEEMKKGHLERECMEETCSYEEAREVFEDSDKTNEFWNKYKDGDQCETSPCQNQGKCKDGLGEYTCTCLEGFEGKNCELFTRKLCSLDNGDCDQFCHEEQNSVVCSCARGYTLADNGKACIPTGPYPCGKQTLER
# Chain of Coagulation factor X (P00742 235-488 limits assumed): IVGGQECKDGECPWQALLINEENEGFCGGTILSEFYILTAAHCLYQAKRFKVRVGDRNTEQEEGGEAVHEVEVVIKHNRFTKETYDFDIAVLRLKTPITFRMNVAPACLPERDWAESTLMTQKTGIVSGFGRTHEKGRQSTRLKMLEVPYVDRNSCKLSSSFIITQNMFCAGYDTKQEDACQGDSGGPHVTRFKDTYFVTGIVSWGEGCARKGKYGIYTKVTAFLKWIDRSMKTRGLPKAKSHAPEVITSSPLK
compound,measurement,setting,value
CC(=O)NC[C@H]1CN(c2ccc(N3CCSCC3)c(F)c2)C(=O)O1 [SUTEZOLID],MIC,[1],0.03 µg/mL
O=C(NC[C@@H]1OC(=O)N2c3ccc(N4CCOCC4=O)cc3SC[C@@H]12)c1ccc(Cl)s1,IC50,Coagulation factor X,2 nM
O=C(NC[C@@H]1OC(=O)N2c3ccc(N4CCCCC4=O)cc3SC[C@@H]12)c1ccc(Cl)s1,IC50,Coagulation factor X,4 nM
O=C(NC[C@@H]1OC(=O)N2c3ccc(N4CCCCC4=O)cc3CC[C@@H]12)c1ccc(Cl)s1,IC50,Coagulation factor X,6 nM
CC(C)(C)C[C@@H](NC(=O)OCC1c2ccccc2-c2ccccc21)C(=O)N[C@@H](Cc1ccccc1)[C@H]1CN(c2ccc(N3CCOCC3)c(F)c2)C(=O)O1,MIC,[2],1.9 µg/mL
CC(=O)NCC1CN(c2ccc(N3CCN(C(=O)CCOCCOCn4cc(CNC(=O)C(CCCCNC(=O)c5cccc(O)c5O)NC(=O)c5cccc(O)c5O)nn4)CC3)c(F)c2)C(=O)O1 (centres undefined),MIC,Staphylococcus aureus [3],> 64 µM
CN1CCN(c2ccc(N3C[C@H](CO)OC3=O)cc2F)C=N1 [DELPAZOLID],MIC90,Staphylococcus aureus [4],1 µg/mL
same,MIC90,[5],0.5 µg/mL
same,MIC90,Enterococcus faecalis [6],0.5 µg/mL
same,MIC90,Staphylococcus aureus [7],1 µg/mL
CC(=O)NC[C@H]1CN(c2ccc(N3CCOCC3)c(F)c2)C(=O)O1 [LINEZOLID],MIC,Pseudomonas aeruginosa,4 µM
same,MIC,Staphylococcus aureus [8],> 32 µg/mL
same,MIC,[9],2 µg/mL
same,MIC,[10],> 32 µg/mL
same,MIC,[11],2 µg/mL
same,MIC,Escherichia coli [12],36 µg/mL
same,MIC,Staphylococcus aureus [13],3.1 µg/mL
same,MIC,Escherichia coli [14],130 µg/mL
same,MIC,Escherichia coli [15],11 µg/mL
same,MIC,[2],1.56 µg/mL
CC(=O)NC[C@H]1CN(c2ccc(N3CCC(Nc4ccc(Br)cc4)CC3)c(F)c2)C(=O)O1,CLint scaled,[16],3.46 mL/min/kg
CC(=O)NC[C@H]1CN(c2ccc(-c3ccc4c(c3)CC3(C(=O)NC(=O)NC3=O)C3CCCCN43)c(F)c2)C(=O)O1 (some centres undefined),MIC,Staphylococcus aureus [8],16 µg/mL
same,MIC,[9],2 µg/mL
same,MIC,Staphylococcus aureus [17],2 µg/mL
same,MIC,[10],> 32 µg/mL
same,MIC,[11],< 1 µg/mL
same,MIC,Staphylococcus aureus [18],< 1 µg/mL
CC(=O)NC[C@H]1CN(c2ccc(-c3ccc4c(c3)CC3(C(=O)NCNC3=O)C3CCCCC43)c(F)c2)C(=O)O1 (some centres undefined),MIC,Staphylococcus aureus [8],> 32 µg/mL
same,MIC,[9],8 µg/mL
same,MIC,Staphylococcus aureus [17],8 µg/mL
same,MIC,[10],> 32 µg/mL
same,MIC,[11],4 µg/mL
same,MIC,Staphylococcus aureus [18],8 µg/mL
CC(=O)NC[C@H]1CN(c2ccc(-c3ccc4c(c3)CC3(C(=O)NC(=O)NC3=O)C3COCCN43)c(F)c2)C(=O)O1 (some centres undefined),MIC,Staphylococcus aureus [8],32 µg/mL
same,MIC,[9],4 µg/mL
same,MIC,Staphylococcus aureus [17],4 µg/mL
same,MIC,[10],32 µg/mL
same,MIC,[11],2 µg/mL
same,MIC,Staphylococcus aureus [18],4 µg/mL
O=C(NC[C@@H]1OC(=O)N2c3ccc(N4CCOCC4=O)cc3S(=O)(=O)C[C@@H]12)c1ccc(Cl)s1,IC50,Coagulation factor X,20 nM
CC(=O)NC[C@H]1CN(c2ccc(C(C)=O)cc2)C(=O)O1 [DUP-721],MIC,[19],4 µg/mL
same,MIC,Staphylococcus aureus [20],4 µg/mL
CC(=O)NCC1CN(c2ccc(N3CCN(C(=O)COn4cc(CNC(=O)C(CCCCNC(=O)c5cccc(O)c5O)NC(=O)c5cccc(O)c5O)nn4)CC3)c(F)c2)C(=O)O1 (centres undefined),MIC,Staphylococcus aureus [3],> 64 µM
CS(=O)(=O)c1ccccc1-c1ccc2c(c1)OC[C@H]1[C@H](CNC(=O)c3ccc(Cl)s3)OC(=O)N21,IC50,Coagulation factor X,30 nM
Cn1nnc(-c2ccc(-c3ccc(N4C[C@H](CO)OC4=O)cc3F)cn2)n1 [TEDIZOLID],MIC90,Enterococcus faecalis [21],0.5 µg/mL
same,fold change (FC),Staphylococcus aureus [22],4
same,MIC90,Staphylococcus aureus [23],0.25 µg/mL
same,MIC90,Staphylococcus aureus [24],0.25 µg/mL
O=C1NC(=O)C2(Cc3cc(-c4ccc(N5C[C@H](CO)OC5=O)cc4F)ccc3C3CCCCC32)C(=O)N1 (some centres undefined),MIC,Staphylococcus aureus [8],32 µg/mL
same,MIC,[9],2 µg/mL
same,MIC,Staphylococcus aureus [17],4 µg/mL
same,MIC,[10],32 µg/mL
same,MIC,[11],< 1 µg/mL
same,MIC,Staphylococcus aureus [18],2 µg/mL
